Results published in patent publication EP1021178B1, “SELENOPHENE ANTI-TUMOR AGENTS” (Purdue Research Foundation, priority 1996, dated 1997).

Legend:
[1] = in vivo activity of glycoside prodrug (preliminary); conditions: preliminary results
[2] = in vitro activity of glycoside prodrug (preliminary); conditions: preliminary results

OC[C@H]1O[C@@H](OCc2ccc(-c3ccc(-c4cccs4)s3)s2)[C@H](O)[C@@H](O)[C@@H]1O [β-D-glucoside of 2-hydroxymethyl-∝-terthiophene]
in vivo activities [1]: retains | in vitro activities [2]: retains
